Several values for one entry are separate records, joined by “and”; a condition that tells them apart may be missing. Identical values can stand only once.
details: Table 2, formula (II); method [a]: pH 2.7, 0.1% formic acid in water / acetonitrile gradient
Experimental: Measurement of log P values was performed according EEC directive 79/831 Annex V.A8 by HPLC (High Performance Liquid Chromatography) on reversed phase columns with the following methods: ^[a]

Structure (SMILES)	Log P
CCOC(=O)C1(C)ON=C(c2ccc3ncc(Br)cc3c2)C1OCC (stereo not shown) [II-49]	3.99[a]
COC(=O)C1(OC)CC(c2cc3cc(Br)cnc3c(F)c2F)=NO1 (racemic) [II-24]	3.04[a]
COC(=O)C1(C)CC(c2cc(Cl)c3ncc(Br)cc3c2)=NO1 (stereo not shown) [II-76]	3.29[a]
COC(=O)C1(C)CC(c2ccc3nc(C#N)c(I)cc3c2)=NO1 (stereo not shown) [II-68]	3.02[a]
COC(=O)C1(C)CC(c2cc3cc(Br)cnc3cc2F)=NO1 (stereo not shown) [II-34]	2.94[a]
COC(=O)C1(C)CC(c2cc(C)c3ncc(Br)cc3c2)=NO1 (stereo not shown) [II80]	3.55[a]
COC(=O)C1(C)ON=C(c2ccc3ncc(Br)cc3c2)C1C (mixture of isomers) [II-15]	2.94[a]
CC1(C(=O)O)CC(c2ccc3nc(C#N)c(I)cc3c2)=NO1 (stereo not shown) [II-82]	2.24[a]
COC(=O)C1(C)CC(c2ccc3nc(C#N)c(Br)cc3c2)=NO1 (stereo not shown) [II-47]	3.02[a]
COC(=O)C1(C(F)(F)F)CC(c2cc3cc(Br)cnc3c(F)c2F)=NO1 (racemic) [II-22]	3.72[a]
CCOC(=O)C1(CC)CC(c2ccc3ncc(Br)cc3c2)=NO1 (stereo not shown) [II-63]	3.53[a]
CC1(C(=O)O)CC(c2ccc3ncc(Br)c(Cl)c3c2)=NO1 (stereo not shown) [II-96]	2.34[a]
C#Cc1cnc2c(C)cc(C3=NOC(OC)(C(=O)OCC)C3)cc2c1 (stereo not shown) [II-86]	3.46[a]
COC(=O)C1(CO)CC(c2ccc3ncc(Br)cc3c2)=NO1 (stereo not shown) [II-52]	1.99[a]
COC(=O)C1(C)CC(c2cc3cc(Br)cnc3c(F)c2F)=NO1 (stereo not shown) [II-27]	3.06[a]
COC(=O)C1(C)CC(c2ccc3ncc(I)cc3c2)=NO1 (stereo not shown) [II-30]	2.71[a]
C#Cc1cc2cc(C3=NOC(C)(C(=O)OC)C3)ccc2nc1Cl (stereo not shown) [II-56]	3.01[a]
CC(C)OC(=O)C1(C)CC(c2ccc3ncc(Br)cc3c2)=NO1 (stereo not shown) [II-59]	3.53[a]
CCC1(C(=O)O)CC(c2ccc3ncc(Br)cc3c2)=NO1 (stereo not shown) [II-64]	2.30[a]
N#CC1(C(=O)O)CC(c2ccc3ncc(Br)cc3c2)=NO1 (stereo not shown) [II-94]	1.42[a]
COC(=O)C1(C)CC(c2ccc3ncc(Br)cc3c2)=NO1 (stereo not shown) [II-33]	2.69[a]
CCOC(=O)C1(OC)CC(c2cc(C)c3ncc(Br)cc3c2)=NO1 (stereo not shown) [II-91]	3.99[a]
CC1(C(=O)O)CC(c2ccc3nc(Cl)c(Br)cc3c2)=NO1 (stereo not shown) [II-43]	2.57[a]
C#Cc1cnc2c(C)cc(C3=NOC(C)(C(=O)OC)C3)cc2c1 (stereo not shown) [II-74]	3.07[a]
CCOC(=O)C1(OC)CC(c2cc(Cl)c3ncc(Br)cc3c2)=NO1 (stereo not shown) [II-87]	3.69[a]
CSC1(C(=O)O)CC(c2ccc3ncc(Br)cc3c2)=NO1 (stereo not shown) [II-88]	2.01[a]

Structure (SMILES)	Log P
C#Cc1cnc2ccc(C3=NOC(C)(C(=O)O)C3)cc2c1 (racemic) [II-10]	1.71[a]
O=C(O)C1(C2CC2)CC(c2ccc3ncc(Br)cc3c2)=NO1 (stereo not shown) [II-37]	2.43[a]
COC(=O)CC1(C(=O)O)CC(c2ccc3ncc(Br)cc3c2)=NO1 (stereo not shown) [II-50]	1.98[a]
COC(=O)C1(c2ccccc2)CC(c2ccc3ncc(Br)cc3c2)=NO1 (racemic) [II-17]	2.69[a]
O=C(O)C1(c2ccccc2)CC(c2ccc3ncc(Br)cc3c2)=NO1 (racemic) [II-12]	2.76[a]
COC(=O)C1(C)CC(c2ccc3ncc(C#C[Si](C)(C)C)cc3c2)=NO1 (stereo not shown) [II-26]	4.31[a]
COC(=O)C1ON=C(c2ccc3ncc(Br)cc3c2)C12CC2 (stereo not shown) [II-41]	2.71[a]
O=C(O)C1(C(F)(F)F)CC(c2cc3cc(Br)cnc3c(F)c2F)=NO1 (racemic) [II-13]	2.01[a]
CC1(C(=O)O)CC(c2ccc3nc(Cl)c(I)cc3c2)=NO1 (stereo not shown) [II-83]	2.59[a]
C=C(Cl)C1(C(=O)OC)CC(c2ccc3ncc(Br)cc3c2)=NO1 (stereo not shown) [II-70]	3.68[a]
COC(=O)C1(C)CC(c2ccc3nc(Cl)c(Br)cc3c2)=NO1 (stereo not shown) [II-44]	3.74[a]
COC(=O)C1(SC)CC(c2ccc3ncc(Br)cc3c2)=NO1 (stereo not shown) [II-84]	3.05[a]
O=C(O)C1(CC2CC2)CC(c2ccc3ncc(Br)cc3c2)=NO1 (stereo not shown) [II-66]	2.70[a]
CC1(C(=O)O)CC(c2cc(Cl)c3ncc(Br)cc3c2)=NO1 (stereo not shown) [II-79]	2.45[a]
COC(=O)C1(C)CC(c2ccc3nc(O)c(Br)cc3c2)=NO1 (stereo not shown) [II-45]	1.74[a]
CC1(C(=O)O)CC(c2ccc3ncc(Br)cc3c2)=NO1 (racemic) [II-03]	1.94[a]
C#Cc1cnc2c(Cl)cc(C3=NOC(OC)(C(=O)O)C3)cc2c1 (stereo not shown) [II-90]	1.95[a]
C[Si](C)(C)CC1(C(=O)O)CC(c2ccc3ncc(Br)cc3c2)=NO1 (stereo not shown) [II-54]	3.42[a]
C#Cc1cnc2ccc(C3=NOC(C)(C(=O)OC)C3)cc2c1 (stereo not shown) [II-35]	2.35[a]
COc1c(C2=NOC(C)(C(=O)O)C2)cc2cccnc2c1F (racemic) [II-05]	1.39[a]
COC(=O)C1(C)CC(c2ccc3ncc(Br)c(Cl)c3c2)=NO1 (stereo not shown) [II-95]	3.29[a]
C#Cc1cnc2c(C)cc(C3=NOC(C)(C(=O)O)C3)cc2c1 (stereo not shown) [II-81]	2.30[a]
CCOC(=O)C1(C)CC(c2ccc3ncccc3c2)=NO1 (racemic) [II-20]	1.6[a]
CC(O)C1(C(=O)O)CC(c2ccc3ncc(Br)cc3c2)=NO1 (mixture of isomers) [II-77]	1.60 and 1.65
O=C(O)C1(CF)CC(c2ccc3ncc(Br)cc3c2)=NO1 (stereo not shown) [II-36]	1.94[a]
COC(=O)C12OCCCC1C(c1ccc3ncc(Br)cc3c1)=NO2 (stereo not shown) [II-32]	2.80[a]

Structure (SMILES)	Log P
COC1(C(=O)O)CC(c2cc(C)c3ncc(Br)cc3c2)=NO1 (stereo not shown) [II-92]	2.42[a]
C#Cc1cnc2c(Cl)cc(C3=NOC(C)(C(=O)OC)C3)cc2c1 (stereo not shown) [II-75]	2.92[a]
COC(=O)C1(C(C)=O)CC(c2ccc3ncc(Br)cc3c2)=NO1 (stereo not shown) [II-40]	2.94[a]
CC1(C(=O)O)CC(c2cc3cc(Br)cnc3cc2F)=NO1 (racemic) [II-07]	2.14[a]
Cc1cc(C2=NOC(C)(C(=O)O)C2)cc2cc(Br)cnc12 (stereo not shown) [II-85]	2.64[a]
CCOC(=O)C1(CF)CC(c2ccc3ncc(Br)cc3c2)=NO1 (stereo not shown) [II-62]	3.13[a]
CCOC(=O)C1(C[Si](C)(C)C)CC(c2ccc3ncc(Br)cc3c2)=NO1 (stereo not shown) [II-58]	3.80[a]
C#Cc1cnc2ccc(C3=NOC(OC)(C(=O)OCCCC(C)NC(C)CCCOC(=O)C4(OC)CC(c5ccc6ncc(C#C)cc6c5)=NO4)C3)cc2c1 (stereo not shown) [II-71]	2.20[a]
CCOC(=O)C1(C)ON=C(c2ccc3ncc(Br)cc3c2)C1CC (stereo not shown) [II-42]	3.74[a]
O=C(O)C1(CCl)CC(c2ccc3ncc(Br)cc3c2)=NO1 (racemic) [II-06]	2.11[a]
C#Cc1cnc2c(C)cc(C3=NOC(OC)(C(=O)O)C3)cc2c1 (stereo not shown) [II-93]	2.07[a]
C=C(C)C1(C(=O)OC)CC(c2ccc3ncc(Br)cc3c2)=NO1 (stereo not shown) [II-72]	3.44[a]
C#Cc1cnc2c(Cl)cc(C3=NOC(C)(C(=O)O)C3)cc2c1 (stereo not shown) [II-78]	2.20[a]
C#Cc1cc2cc(C3=NOC(C)(C(=O)O)C3)ccc2nc1Cl (stereo not shown) [II-55]	2.24[a]
COC(=O)C1(CCl)CC(c2ccc3ncc(Br)cc3c2)=NO1 (racemic) [II-16]	3.03[a]
COC(=O)C12ON=C(c3ccc4ncc(Br)cc4c3)C1C2C (stereo not shown) [II-51]	3.09[a]
CC1(C(=O)O)CC(c2ccc3nc(C#N)c(Br)cc3c2)=NO1 (stereo not shown) [II-46]	2.23[a]
O=C(O)C1(CBr)CC(c2ccc3ncc(Br)cc3c2)=NO1 (racemic) [II-11]	2.19[a]
O=C(O)C1(C(F)(F)F)CC(c2ccc3ncc(Br)cc3c2)=NO1 (racemic) [II-08]	1.85[a]
COC(=O)C1(C)CC(c2cc3cccnc3c(F)c2F)=NO1 (stereo not shown) [II-29]	2.11[a]
CCOC(=O)C1(OCC)CC(c2ccc3ncc(Br)cc3c2)=NO1 (stereo not shown) [II-57]	2.53[a]
COC1(C(=O)O)CC(c2cc(Cl)c3ncc(Br)cc3c2)=NO1 (stereo not shown) [II-89]	2.19[a]
C=C(C)C1(C(=O)O)CC(c2ccc3ncc(Br)cc3c2)=NO1 (stereo not shown) [II-73]	2.52[a]
COC(=O)C1(OC)CC(c2ccc3ncc(Br)cc3c2)=NO1 (stereo not shown) [II-25]	3.29[a]

same assay, conditions: Table 3, formula (V); method [a]: pH 2.7, 0.1% formic acid in water / acetonitrile gradient

Structure (SMILES)	Log P
ON=Cc1ccc2ncc(I)cc2c1 [V-07]	1.98[a]
ON=Cc1cc(F)c2ncc(Br)cc2c1 [V-23]	2.08[a]
ON=C(Cl)c1ccc2ncc(Br)cc2c1 [V-10]	2.52[a]
Cc1cc(C=NO)cc2cc(Br)cnc12 [V-16]	2.61[a]
Cc1cc(C(Cl)=NO)cc2cc(Br)cnc12 [V-19]	3.37[a]
C#Cc1cnc2c(C)cc(C=NO)cc2c1 [V-15]	2.21[a]
ON=Cc1ccc2ncc(I)cc2c1 [V-13]	2.08[a]
ON=C(Cl)c1cc(Cl)c2ncc(Br)cc2c1 [V-18]	3.10[a]
ON=Cc1ccc2ncc(Br)cc2c1 [V-09]	1.88[a]
ON=C(Cl)c1cc2cc(Br)cnc2c(F)c1F [V-03]	2.92[a]
ON=Cc1cc2cc(Br)cnc2cc1F [V-05]	2.21[a]
ON=C(Cl)c1cc2cc(Br)cnc2cc1F [V-06]	2.63[a]
ON=Cc1cc(Cl)c2ncc(Br)cc2c1 [V-17]	2.40[a]
ON=Cc1cc2cccnc2c(F)c1F [V-01]	1.48[a]
ON=C(Cl)c1ccc2ncc(Br)c(Cl)c2c1 [V-22]	3.16[a]
ON=C(Cl)c1cc2cccnc2c(F)c1F [V-02]	2.04[a]
ON=Cc1ccc2ncc(Cl)cc2c1 [V-11]	1.78[a]
ON=Cc1ccc2ncc(Br)c(Cl)c2c1 [V-21]	2.43[a]

From patent US9510598B2, “Nitrogen-containing heterocyclic compounds for plant disease control” (BAYER CROPSCIENCE AG, priority 2012, dated 2016)
